Reference: ChEMBL document CHEMBL1130203, “Novel fluoroquinolone antibacterial agents containing oxime-substituted (aminomethyl)pyrrolidines: synthesis and antibacterial activity of 7-(4-(aminomethyl)-3-(methoxyimino)pyrrolidin-1-yl)-1-cyclopropyl-6- fluoro-4-oxo-1,4-dihydro[1,8]naphthyridine-3-carboxylic acid (LB20304)” (J Med Chem, 1997)
≈ marks a conversion by molar mass, not a printed value.

Assays:
Format in all cases: functional
[1] = system: Acinetobacter calcoaceticus; assay: Minimum inhibitory concentration (MIC) against Acinetobacter calcoaceticus 5473
Bacillus subtilis = assay: Minimum inhibitory concentration (MIC) against Bacillus subtilis ATCC 6633
Escherichia coli [2] = assay: Minimum inhibitory concentration (MIC) against Escherichia coli 10536
Escherichia coli [3] = assay: Minimum inhibitory concentration (MIC) against Escherichia coli 3190Y
Escherichia coli [4] = assay: Minimum inhibitory concentration (MIC) against Escherichia coli TEM9 2639E; details: Escherichia coli; read-out: MIC
Klebsiella aerogenes = assay: Minimum inhibitory concentration (MIC) against Klebsiella aerogenes 1082E; details: Klebsiella aerogenes; read-out: MIC
Pseudomonas aeruginosa = assay: Minimum inhibitory concentration (MIC) against Pseudomonas aeruginosa 1912E; details: Pseudomonas aeruginosa; read-out: MIC
Staphylococcus aureus [5] = assay: Minimum inhibitory concentration (MIC) against Staphylococcus aureus 241; details: Staphylococcus aureus; read-out: MIC
Staphylococcus aureus [6] = assay: Minimum inhibitory concentration (MIC) against Staphylococcus aureus 6538p.
[7] = system: Staphylococcus epidermidis; assay: Minimum inhibitory concentration (MIC) against Staphylococcus epidermidis 887E
[8] = system: Staphylococcus epidermidis; assay: Minimum inhibitory concentration (MIC) against Staphylococcus epidermidis 178; details: Staphylococcus epidermidis; read-out: MIC
Staphylococcus aureus [9] = assay: Minimum inhibitory concentration (MIC) against Staphylococcus aureus giorgio
Enterococcus faecalis = assay: Minimum inhibitory concentration (MIC) against Streptococcus faecalis 29212; details: Enterococcus faecalis; read-out: MIC
Enterobacter cloacae = assay: Minimum inhibitory concentration (MIC) against Enterobacter cloacae P99
[10] = system: Acinetobacter calcoaceticus; assay: Minimum inhibitory concentration (MIC) against Acinetobacter calcoaceticus 15473; details: Acinetobacter calcoaceticus; read-out: MIC

Row | MIC [1] [µg/mL] | MIC (Bacillus subtilis) [µg/mL] | MIC (Escherichia coli [2]) [µg/mL] | MIC (Escherichia coli [3]) [µg/mL] | MIC (Escherichia coli [4]) [µg/mL] | MIC (Klebsiella aerogenes) [µg/mL] | MIC (Pseudomonas aeruginosa) [µg/mL] | MIC (Staphylococcus aureus [5]) [µg/mL] | MIC (Staphylococcus aureus [6]) [µg/mL] | MIC [7] [µg/mL] | MIC [8] [µg/mL] | MIC (Staphylococcus aureus [9]) [µg/mL] | MIC (Enterococcus faecalis) [µg/mL] | MIC (Enterobacter cloacae) [µg/mL] | MIC [10] [µg/mL] | Compound
1 | 0.031 (≈ 0.0736 µM) | < 0.008 | < 0.008 | 0.016 (≈ 0.038 µM) | 0.016 (≈ 0.038 µM) | 0.016 (≈ 0.038 µM) | 0.25 (≈ 0.593 µM) | 0.25 (≈ 0.593 µM) | < 0.008 | < 0.008 | 0.25 (≈ 0.593 µM) | < 0.008 | 0.016 (≈ 0.038 µM) | < 0.008 |  | CO/N=C1\CN(c2c(F)c(N)c3c(=O)c(C(=O)O)cn(C4CC4)c3c2F)CC1CN (stereo unspecified)
2 | 0.13 (≈ 0.335 µM) | < 0.008 | < 0.008 | < 0.008 | 0.031 (≈ 0.0798 µM) | 0.031 (≈ 0.0798 µM) | 0.25 (≈ 0.644 µM) | 4 (≈ 10.3 µM) | 0.008 (≈ 0.0206 µM) | 0.016 (≈ 0.0412 µM) | 4 (≈ 10.3 µM) | 0.016 (≈ 0.0412 µM) | 0.031 (≈ 0.0798 µM) | 0.008 (≈ 0.0206 µM) |  | CO/N=C1\CN(c2cc3c(cc2F)c(=O)c(C(=O)O)cn3C2CC2)CC1CN (stereo unspecified)
3 |  | 0.016 (≈ 0.0383 µM) | 0.13 (≈ 0.311 µM) | 0.063 (≈ 0.151 µM) | 1 (≈ 2.4 µM) | 0.016 (≈ 0.0383 µM) | 16 (≈ 38.3 µM) | 32 (≈ 76.7 µM) | 0.13 (≈ 0.311 µM) | 0.13 (≈ 0.311 µM) | 16 (≈ 38.3 µM) | 0.13 (≈ 0.311 µM) | 1 (≈ 2.4 µM) | 0.13 (≈ 0.311 µM) | 0.5 (≈ 1.2 µM) | CO/N=C1\CN(c2nc3c(cc2F)c(=O)c(C(=O)O)cn3C2CC2)CC1CN(C)C (stereo unspecified)
4 |  | < 0.008 | 0.031 (≈ 0.0687 µM) | 0.016 (≈ 0.0354 µM) | 0.13 (≈ 0.288 µM) | 0.13 (≈ 0.288 µM) | 2 (≈ 4.43 µM) | < 0.008 | 0.016 (≈ 0.0354 µM) | < 0.008 | 16 (≈ 35.4 µM) | 0.016 (≈ 0.0354 µM) | 0.13 (≈ 0.288 µM) | 0.031 (≈ 0.0687 µM) | 0.016 (≈ 0.0354 µM) | NCC1CN(c2nc3c(cc2F)c(=O)c(C(=O)O)cn3C2CC2)C/C1=N\Oc1ccccc1 (stereo unspecified)

The next lines start with the compound.

Row | Compound | MIC [1] [µg/mL] | MIC (Bacillus subtilis) [µg/mL] | MIC (Escherichia coli [2]) [µg/mL] | MIC (Escherichia coli [3]) [µg/mL] | MIC (Escherichia coli [4]) [µg/mL] | MIC (Klebsiella aerogenes) [µg/mL] | MIC (Pseudomonas aeruginosa) [µg/mL] | MIC (Staphylococcus aureus [5]) [µg/mL] | MIC (Staphylococcus aureus [6]) [µg/mL] | MIC [7] [µg/mL] | MIC [8] [µg/mL] | MIC (Staphylococcus aureus [9]) [µg/mL] | MIC (Enterococcus faecalis) [µg/mL] | MIC (Enterobacter cloacae) [µg/mL] | MIC [10] [µg/mL]
5 | CO/N=C1\CN(c2c(F)cc3c(=O)c(C(=O)O)cn(C4CC4)c3c2Cl)CC1CN (stereo unspecified) | 0.25 (≈ 0.591 µM) | 0.016 (≈ 0.0378 µM) | 0.031 (≈ 0.0733 µM) | 0.016 (≈ 0.0378 µM) | 0.25 (≈ 0.591 µM) | 0.25 (≈ 0.591 µM) | 1 (≈ 2.36 µM) | 1 (≈ 2.36 µM) | 0.031 (≈ 0.0733 µM) | 0.031 (≈ 0.0733 µM) | 1 (≈ 2.36 µM) | 0.016 (≈ 0.0378 µM) | 0.13 (≈ 0.307 µM) | 0.063 (≈ 0.149 µM) | 
6 | NCC1CN(c2nc3c(cc2F)c(=O)c(C(=O)O)cn3C2CC2)C/C1=N\O (stereo unspecified) |  | 0.016 (≈ 0.0426 µM) | 0.031 (≈ 0.0826 µM) | 0.016 (≈ 0.0426 µM) | 0.13 (≈ 0.346 µM) | 0.13 (≈ 0.346 µM) | 2 (≈ 5.33 µM) | 8 (≈ 21.3 µM) | 0.031 (≈ 0.0826 µM) | 0.031 (≈ 0.0826 µM) | 8 (≈ 21.3 µM) | 0.031 (≈ 0.0826 µM) | 0.25 (≈ 0.666 µM) | 0.031 (≈ 0.0826 µM) | 0.13 (≈ 0.346 µM)
7 | CO/N=C1\CN(c2nc3c(cc2F)c(=O)c(C(=O)O)cn3C2CC2)CC1CN (stereo in doubt) [GEMIFLOXACIN] |  | < 0.008 | < 0.008 | < 0.008 | 0.031 (≈ 0.0796 µM) | 0.031 (≈ 0.0796 µM) | 0.25 (≈ 0.642 µM) | 4 (≈ 10.3 µM) | < 0.008 | < 0.008 | 4 (≈ 10.3 µM) | < 0.008 | 0.063 (≈ 0.162 µM) | < 0.008 | 0.063 (≈ 0.162 µM)
8 | CCO/N=C1\CN(c2nc3c(cc2F)c(=O)c(C(=O)O)cn3C2CC2)CC1CN (stereo unspecified) |  | < 0.008 | < 0.008 | < 0.008 | 0.031 (≈ 0.0768 µM) | 0.031 (≈ 0.0768 µM) | 0.5 (≈ 1.24 µM) | 2 (≈ 4.96 µM) | < 0.008 | < 0.008 | 2 (≈ 4.96 µM) | < 0.008 | 0.063 (≈ 0.156 µM) | < 0.008 | 0.016 (≈ 0.0397 µM)
9 | CO/N=C1\CN(c2c(F)cc3c(=O)c(C(=O)O)cn(C4CC4)c3c2OC)CC1CN (stereo unspecified) |  | 0.031 (≈ 0.0741 µM) | 0.063 (≈ 0.151 µM) | 0.031 (≈ 0.0741 µM) | 0.25 (≈ 0.597 µM) | 0.25 (≈ 0.597 µM) | 2 (≈ 4.78 µM) | 1 (≈ 2.39 µM) | 0.031 (≈ 0.0741 µM) | 0.031 (≈ 0.0741 µM) | 1 (≈ 2.39 µM) | 0.016 (≈ 0.0382 µM) | 0.063 (≈ 0.151 µM) | 0.063 (≈ 0.151 µM) | 0.25 (≈ 0.597 µM)
